Laboratory results from US20120301895A1, “METHODS OF MODULATING BINDING OF SON OF SEVENLESS TO PHOSPHATIDIC ACID AND IDENTIFYING COMPOUNDS THAT MODULATE SUCH BINDING” (THE RESEARCH FOUNDATION OF STATE UNIVERSITY OF NEW YORK, priority 2007, published 2012).

What was measured:
PLD2 = target: T1, PLD2 (Homo sapiens, UniProt O14939); test: In vitro PLD activity, exogenous substrate assay, PLD2; assay type: biochemical; conditions: purified recombinant PLD2, 30 min at 37° C.
T1 construct: made in house
T1 sequence (O14939 whole entry): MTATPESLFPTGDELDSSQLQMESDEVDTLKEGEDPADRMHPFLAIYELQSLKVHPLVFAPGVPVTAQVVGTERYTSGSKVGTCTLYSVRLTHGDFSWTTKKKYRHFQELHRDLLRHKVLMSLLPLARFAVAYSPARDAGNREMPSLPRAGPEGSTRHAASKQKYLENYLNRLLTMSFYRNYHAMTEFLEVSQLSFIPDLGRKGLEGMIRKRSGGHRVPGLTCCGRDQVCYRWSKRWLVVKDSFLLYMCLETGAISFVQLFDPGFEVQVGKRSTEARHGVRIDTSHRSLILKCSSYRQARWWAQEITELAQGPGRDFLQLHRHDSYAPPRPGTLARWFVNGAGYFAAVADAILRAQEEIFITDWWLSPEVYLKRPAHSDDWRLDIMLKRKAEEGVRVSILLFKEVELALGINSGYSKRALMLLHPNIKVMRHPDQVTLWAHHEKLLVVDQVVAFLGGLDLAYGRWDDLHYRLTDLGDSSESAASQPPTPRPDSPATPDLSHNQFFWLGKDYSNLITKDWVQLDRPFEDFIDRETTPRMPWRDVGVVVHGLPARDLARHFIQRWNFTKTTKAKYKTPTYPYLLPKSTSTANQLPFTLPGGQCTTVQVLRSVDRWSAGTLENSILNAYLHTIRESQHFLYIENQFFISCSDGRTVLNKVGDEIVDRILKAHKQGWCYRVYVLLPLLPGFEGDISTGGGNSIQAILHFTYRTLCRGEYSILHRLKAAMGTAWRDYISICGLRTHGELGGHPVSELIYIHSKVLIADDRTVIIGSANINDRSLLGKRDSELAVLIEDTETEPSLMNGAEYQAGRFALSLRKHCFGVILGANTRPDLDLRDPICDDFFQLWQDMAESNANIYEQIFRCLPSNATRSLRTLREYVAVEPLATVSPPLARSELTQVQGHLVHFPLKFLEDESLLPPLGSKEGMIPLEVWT
Experimental: In FIG. 13A, MDA-MB-231 cells were plated as in FIGS. 12A-C and then shifted to either 10% serum or 0.5% serum overnight as indicated. Honokiol (20 μM) or control ethanol was then added for 4 hr as indicated, at which time the cells were harvested and the levels of PBt were determined as in FIGS. 12A-C. The experiment shown is representative of at least three independent experiments. In FIG. 13B, the effect of honokiol on the activity of PLD isoforms was measured using exogenous substrate assay as described previously (Henage et al., “Kinetic Analysis of a Mammalian Phospholipase D: Allosteric Modulation by Monomeric GTPases, Protein Kinase C, and Polyphosphoinositides,” J. Biol. Chem. 281:3408-17 (2006), which is hereby incorporated by reference in its entirety). […] The amount of background was determined and subtracted using a bovine serum albumin standard. […]
For in vivo PLD activity, cells were plated in 60 mm culture dishes in DMEM with 10% serum at a density that would allow them to grow to about 80% confluence after 2 days, then cells were shifted to DMEM containing 0.5% or 10% serum as indicated in the figure legends overnight. […] Briefly, PLD activity was measured by the release of [methyl-^3H] choline from [choline-methyl-^3H]dipalmitoyl-phosphatidylcholine. […]

[1] = system: PLD activity in Calu-1 cells; test: In vivo PLD activity in Calu-1 lung cancer cells; assay type: cell-based, human; conditions: honokiol 20 μM, 4 hr
Experimental: In FIG. 17A, T24 and Calu1 cells (obtained from the American Type Culture Collection) were plated in DMEM containing 10% serum for 48 hr and then shifted to either 10% serum or 0.5% serum overnight as indicated. Honokiol (20 μM) or control ethanol was then added for 4 hr as indicated. [^3H]-Myristate was added with the honokiol. After 4 hr, BtOH (0.7%) was added for 20 min, at which time the cells were harvested and the level of phosphatidyl-BtOH (P-Bt) was determined as in FIGS. 12A-C. The experiments shown are representative of at least two independent experiments. In FIG. 17B, T24 and Calu-1 cells were plated in DMEM with 10% serum for 48 hr then changed to DMEM containing either 10% or 0.5% serum overnight as indicated. […]
For in vivo PLD activity, cells were plated in 60 mm culture dishes in DMEM with 10% serum at a density that would allow them to grow to about 80% confluence after 2 days, then cells were shifted to DMEM containing 0.5% or 10% serum as indicated in the figure legends overnight. […] Briefly, PLD activity was measured by the release of [methyl-^3H] choline from [choline-methyl-^3H]dipalmitoyl-phosphatidylcholine. […] Free [methyl-^3H] choline was separated from precipitated lipids and proteins by centrifugation and was analyzed by liquid scintillation counting. […]

C=CCc1ccc(O)c(-c2ccc(O)c(CC=C)c2)c1 [honokiol, Honokiol]
in vitro activity of PLD2 (PLD2): no significant effect
stress-induced PLD activity ([1]; 0.5% serum): suppressed
PLD activity observed in the presence of serum ([1]; 10% serum): little effect
